Assay results as given in PubChem BioAssay (NCI).
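In this assay, cells in 96-well plates receive the compound at five concentrations for 48 hours. Endpoints are linearly interpolated between the surrounding concentrations. GI50 is the concentration that inhibits growth by half. TGI marks complete inhibition of growth.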

Experiments:
Assay in all cases: NCI-60 cell line screen, 48 h
NCI-H226 lung = system: NCI-H226 lung
786-0 renal = system: 786-0 renal
HOP-92 NSCLC = system: HOP-92 NSCLC
MDA-MB-435 = system: MDA-MB-435
SN12C renal = system: SN12C renal
MOLT-4 leukemia = system: MOLT-4 leukemia
TK-10 renal = system: TK-10 renal
SNB-19 CNS = system: SNB-19 CNS
M14 melanoma = system: M14 melanoma
SK-MEL-2 melanoma = system: SK-MEL-2 melanoma
OVCAR-5 ovarian = system: OVCAR-5 ovarian
UACC-257 melanoma = system: UACC-257 melanoma
IGROV1 ovarian = system: IGROV1 ovarian
COLO 205 colon = system: COLO 205 colon
MDA-MB-468 breast = system: MDA-MB-468 breast
CCRF-CEM leukemia = system: CCRF-CEM leukemia
HCC-2998 colon = system: HCC-2998 colon
SF-295 CNS = system: SF-295 CNS
MDA-MB-231 breast = system: MDA-MB-231 breast
SK-OV-3 ovarian = system: SK-OV-3 ovarian
SNB-75 CNS = system: SNB-75 CNS
NCI-H23 lung = system: NCI-H23 lung
A549 NSCLC = system: A549 NSCLC
UACC-62 melanoma = system: UACC-62 melanoma
BT-549 breast = system: BT-549 breast
T-47D breast = system: T-47D breast
K-562 leukemia = system: K-562 leukemia
U251 CNS = system: U251 CNS
MCF7 breast = system: MCF7 breast
LOX IMVI melanoma = system: LOX IMVI melanoma
HS 578T breast = system: HS 578T breast
HT29 colon = system: HT29 colon
OVCAR-4 ovarian = system: OVCAR-4 ovarian
SF-268 CNS = system: SF-268 CNS
NCI-H460 lung = system: NCI-H460 lung
CAKI-1 renal = system: CAKI-1 renal
SK-MEL-28 melanoma = system: SK-MEL-28 melanoma
MALME-3M melanoma = system: MALME-3M melanoma
SK-MEL-5 melanoma = system: SK-MEL-5 melanoma
OVCAR-8 ovarian = system: OVCAR-8 ovarian
EKVX NSCLC = system: EKVX NSCLC
A498 renal = system: A498 renal
ACHN renal = system: ACHN renal
DU-145 prostate = system: DU-145 prostate
SR leukemia = system: SR leukemia
RXF 393 renal = system: RXF 393 renal
UO-31 renal = system: UO-31 renal
HCT-15 colon = system: HCT-15 colon
SW-620 colon = system: SW-620 colon
HCT-116 colon = system: HCT-116 colon
NCI/ADR-RES ovarian = system: NCI/ADR-RES ovarian
OVCAR-3 ovarian = system: OVCAR-3 ovarian
PC-3 prostate = system: PC-3 prostate
SF-539 CNS = system: SF-539 CNS
KM12 colon = system: KM12 colon
RPMI-8226 leukemia = system: RPMI-8226 leukemia
HOP-62 NSCLC = system: HOP-62 NSCLC
HL-60(TB) leukemia = system: HL-60(TB) leukemia
NCI-H522 lung = system: NCI-H522 lung

## FC(F)(F)c1cc2c(Cl)ncnc2n1CCN1CCCCC1
NCI-H226 lung
  GI50: 60.6 µM
  TGI: > 100 µM
786-0 renal
  GI50: 39.8 µM
  TGI: > 100 µM
HOP-92 NSCLC
  GI50: 19.7 µM
  TGI: 53.8 µM
MDA-MB-435
  GI50: 13.1 µM
  TGI: 29.9 µM
SN12C renal
  GI50: 19.4 µM
  TGI: > 100 µM
MOLT-4 leukemia
  GI50: 10.5 µM
  TGI: 55.2 µM
TK-10 renal
  GI50: > 100 µM
  TGI: > 100 µM
SNB-19 CNS
  GI50: 15.2 µM
  TGI: 31.3 µM
M14 melanoma
  GI50: 12.8 µM
  TGI: 33.4 µM
SK-MEL-2 melanoma
  GI50: 16.5 µM
  TGI: 32.9 µM
OVCAR-5 ovarian
  GI50: > 100 µM
  TGI: > 100 µM
UACC-257 melanoma
  GI50: 11.8 µM
  TGI: 30.4 µM
IGROV1 ovarian
  GI50: 2.98 µM
  TGI: 10.3 µM
COLO 205 colon
  GI50: 52.7 µM
  TGI: > 100 µM
MDA-MB-468 breast
  GI50: 3.02 µM
  TGI: 9.43 µM
CCRF-CEM leukemia
  GI50: 11 µM
  TGI: > 100 µM
HCC-2998 colon
  GI50: 4.11 µM
  TGI: 14.3 µM
SF-295 CNS
  GI50: 22.6 µM
  TGI: 86.3 µM
MDA-MB-231 breast
  GI50: 5.47 µM
  TGI: 19.7 µM
SK-OV-3 ovarian
  GI50: 52.3 µM
  TGI: > 100 µM
SNB-75 CNS
  GI50: 10.5 µM
  TGI: 22.5 µM
NCI-H23 lung
  GI50: 13.9 µM
  TGI: 39.3 µM
A549 NSCLC
  GI50: 80.1 µM
  TGI: > 100 µM
UACC-62 melanoma
  GI50: 12.2 µM
  TGI: 30.5 µM
BT-549 breast
  GI50: 15 µM
  TGI: 29.8 µM
T-47D breast
  GI50: 21.9 µM
  TGI: > 100 µM
K-562 leukemia
  GI50: 2.91 µM
  TGI: > 100 µM
U251 CNS
  GI50: 14.1 µM
  TGI: 34.9 µM
MCF7 breast
  GI50: 19.6 µM
  TGI: 76.5 µM
LOX IMVI melanoma
  GI50: 1.69 µM
  TGI: 3.11 µM
HS 578T breast
  GI50: 16.4 µM
  TGI: 60 µM
HT29 colon
  GI50: 21.1 µM
  TGI: 81.3 µM
OVCAR-4 ovarian
  GI50: 28.5 µM
  TGI: > 100 µM
SF-268 CNS
  GI50: 16 µM
  TGI: 38.6 µM
NCI-H460 lung
  GI50: 18.3 µM
  TGI: 50.6 µM
CAKI-1 renal
  GI50: 25.3 µM
  TGI: > 100 µM
SK-MEL-28 melanoma
  GI50: 16 µM
  TGI: 37.7 µM
MALME-3M melanoma
  GI50: 19 µM
  TGI: 55.4 µM
SK-MEL-5 melanoma
  GI50: 14.9 µM
  TGI: 31.1 µM
OVCAR-8 ovarian
  GI50: 12.5 µM
  TGI: 32.8 µM
EKVX NSCLC
  GI50: 16.3 µM
  TGI: 85.5 µM
A498 renal
  GI50: > 100 µM
  TGI: > 100 µM
ACHN renal
  GI50: 6.46 µM
  TGI: > 100 µM
DU-145 prostate
  GI50: 30.5 µM
  TGI: > 100 µM
SR leukemia
  GI50: 3.28 µM
  TGI: 26.1 µM
RXF 393 renal
  GI50: 15.6 µM
  TGI: 40.9 µM
UO-31 renal
  GI50: 1.74 µM
  TGI: 3.58 µM
HCT-15 colon
  GI50: 3.16 µM
  TGI: 12.8 µM
SW-620 colon
  GI50: 11.2 µM
  TGI: 28.7 µM
HCT-116 colon
  GI50: 4.86 µM
  TGI: 20.3 µM
NCI/ADR-RES ovarian
  GI50: 24 µM
  TGI: 64.8 µM
OVCAR-3 ovarian
  GI50: 17.6 µM
  TGI: 35.5 µM
PC-3 prostate
  GI50: 15.2 µM
  TGI: 47.9 µM
SF-539 CNS
  GI50: 17.1 µM
  TGI: 36.2 µM
KM12 colon
  GI50: 29.8 µM
  TGI: > 100 µM
RPMI-8226 leukemia
  GI50: 31.5 µM
  TGI: > 100 µM
HOP-62 NSCLC
  GI50: 38.1 µM
  TGI: > 100 µM
HL-60(TB) leukemia
  GI50: 2.07 µM
  TGI: 7.47 µM

## C[C@H]1[C@@H](CC(=O)N[C@@H](Cc2coc3ccccc23)B(O)O)O[C@@H]2OC3(C)CC[C@H]4[C@H](C)CC[C@@H]1[C@@]24O3
NCI-H226 lung
  GI50: 1.3 µM
  TGI: 2.84 µM
786-0 renal
  GI50: 4.24 µM
  TGI: 19.2 µM
HOP-92 NSCLC
  GI50: 3.88 µM
  TGI: 15.4 µM
MDA-MB-435
  GI50: 2.06 µM
  TGI: 5.03 µM
SN12C renal
  GI50: 4.07 µM
  TGI: 15.9 µM
MOLT-4 leukemia
  GI50: 1.48 µM
  TGI: 6.61 µM
TK-10 renal
  GI50: 2.71 µM
  TGI: 8.86 µM
SNB-19 CNS
  GI50: 6.28 µM
  TGI: > 100 µM
M14 melanoma
  GI50: 2.1 µM
  TGI: 5.96 µM
OVCAR-5 ovarian
  GI50: 2.92 µM
  TGI: 13.7 µM
UACC-257 melanoma
  GI50: 1.85 µM
  TGI: 4.19 µM
IGROV1 ovarian
  GI50: 4.03 µM
  TGI: 18.9 µM
COLO 205 colon
  GI50: 3.07 µM
  TGI: 12.2 µM
MDA-MB-468 breast
  GI50: 1.93 µM
  TGI: 4.49 µM
CCRF-CEM leukemia
  GI50: 2.45 µM
  TGI: 12.2 µM
HCC-2998 colon
  GI50: 2.22 µM
  TGI: 4.45 µM
SF-295 CNS
  GI50: 1.92 µM
  TGI: 6.27 µM
SK-OV-3 ovarian
  GI50: 5.37 µM
  TGI: 19.2 µM
NCI-H23 lung
  GI50: 3.16 µM
  TGI: 14.6 µM
A549 NSCLC
  GI50: 3.66 µM
  TGI: 18.7 µM
UACC-62 melanoma
  GI50: 1.89 µM
  TGI: 4.26 µM
BT-549 breast
  GI50: 1.64 µM
  TGI: 4.2 µM
T-47D breast
  GI50: 3.3 µM
  TGI: 16.5 µM
K-562 leukemia
  GI50: 3.25 µM
  TGI: 22.9 µM
U251 CNS
  GI50: 3.78 µM
  TGI: 15.4 µM
MCF7 breast
  GI50: 3.49 µM
  TGI: 18.5 µM
LOX IMVI melanoma
  GI50: 1.83 µM
  TGI: 4.34 µM
HS 578T breast
  GI50: 2.56 µM
  TGI: 9.97 µM
HT29 colon
  GI50: 2.27 µM
  TGI: 5.36 µM
OVCAR-4 ovarian
  GI50: 6.09 µM
  TGI: > 100 µM
SF-268 CNS
  GI50: 4.67 µM
  TGI: > 100 µM
NCI-H460 lung
  GI50: 3.89 µM
  TGI: 15.2 µM
CAKI-1 renal
  GI50: 4.2 µM
  TGI: 23.7 µM
SK-MEL-28 melanoma
  GI50: 2.92 µM
  TGI: 11.5 µM
MALME-3M melanoma
  GI50: 1.88 µM
  TGI: 6.77 µM
SK-MEL-5 melanoma
  GI50: 2.29 µM
  TGI: 5.48 µM
OVCAR-8 ovarian
  GI50: 9.53 µM
  TGI: 24.7 µM
EKVX NSCLC
  GI50: 5.01 µM
  TGI: 23.6 µM
A498 renal
  GI50: 4.45 µM
  TGI: 16.6 µM
ACHN renal
  GI50: 3.08 µM
  TGI: > 100 µM
DU-145 prostate
  GI50: 8.58 µM
  TGI: 51.6 µM
SR leukemia
  GI50: 1.48 µM
  TGI: 5.16 µM
NCI-H522 lung
  GI50: 1.82 µM
  TGI: 4.26 µM
RXF 393 renal
  GI50: 1.53 µM
  TGI: 3.47 µM
HCT-15 colon
  GI50: 2.22 µM
  TGI: 5.88 µM
SW-620 colon
  GI50: 2.69 µM
  TGI: 11.5 µM
HCT-116 colon
  GI50: 2.19 µM
  TGI: 5.56 µM
NCI/ADR-RES ovarian
  GI50: 11.6 µM
  TGI: 26.3 µM
OVCAR-3 ovarian
  GI50: 3.07 µM
  TGI: 11.1 µM
PC-3 prostate
  GI50: 5.47 µM
  TGI: 40.1 µM
SF-539 CNS
  GI50: 1.92 µM
  TGI: 4.05 µM
KM12 colon
  GI50: 3.42 µM
  TGI: 11.6 µM
RPMI-8226 leukemia
  GI50: 1.23 µM
  TGI: 5.65 µM
HOP-62 NSCLC
  GI50: 2.8 µM
  TGI: 12.3 µM
HL-60(TB) leukemia
  GI50: 2.25 µM
  TGI: 6.84 µM
